Values joined by “and” are separate entries in the source; they are usually repeats but may differ in a detail not shown here. Identical values can stand only once.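 Dose response: 5 concentrations. Exposure: 48 h. Format: 96-well plates. Endpoint: linear interpolation; highest concentration if not reached. Abbreviation: GI50, concentration required for 50% inhibition of growth. The concentration for full growth arrest is given as TGI.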
What was measured:
Assay in all cases: NCI-60 cell line screen, 48 h
[1] = test system: A498 renal
[2] = test system: M14 melanoma
[3] = test system: MCF7 breast
[4] = test system: NCI-H226 lung
[5] = test system: NCI-H460 lung
[6] = test system: SF-539 CNS
[7] = test system: SK-MEL-2 melanoma
[8] = test system: SK-MEL-5 melanoma
[9] = test system: SR leukemia
[10] = test system: T-47D breast

Row | SMILES | GI50 [1] | GI50 [2] | GI50 [3] | TGI [3] | TGI [4] | GI50 [5] | GI50 [6] | GI50 [7] | GI50 [8] | TGI [9] | GI50 [10] | TGI [1] | TGI [2] | GI50 [4] | TGI [5] | TGI [6] | TGI [7] | TGI [8] | GI50 [9] | TGI [10]
1 | CC(C)C[C@H](NC(=O)[C@@H](N)Cc1cccc2ccccc12)B(O)O | 0.202 µM | 0.206 µM and 0.0374 µM | 0.389 µM | 50 µM | < 0.0186 µM | 1.36 µM | 0.178 µM | 0.598 µM | 0.176 µM | 0.0653 µM | 0.432 µM | – | – | – | – | – | – | – | – | –
2 | COc1cccc(/C=C2\COc3ccc(O)c(O)c3C2=O)c1OC | 4.01 µM | 2.56 µM | 1.76 µM | 14.9 µM | 51.2 µM | 2.34 µM | 2.07 µM | 2.35 µM | 2.05 µM | > 100 µM | 1.66 µM | 13.9 µM | 9.3 µM | 10.7 µM | 7.12 µM | 4.77 µM | 6.34 µM | 4.3 µM | 1.51 µM | 22.1 µM
3 | O=c1oc2cc(O)ccc2cc1-c1nc2ccccc2o1 | – | – | – | > 100 µM | > 100 µM | – | – | – | – | > 100 µM | – | 84.7 µM | > 100 µM | – | > 100 µM | > 100 µM | > 100 µM | 40.8 µM | – | 31.2 µM
4 | CCOC(=O)CCC(NC(=O)c1ccc(Oc2nc3cc(N)cc(N)c3nc2-c2ccccc2)cc1)C(=O)OCC (configuration not stated) | – | 40 µM | 53.6 µM | > 100 µM | 25 µM | 96.2 µM | 34 µM | 40.7 µM | 18 µM | – | 24.6 µM | – | > 100 µM | 2.94 µM | > 100 µM | > 100 µM | > 100 µM | 53.8 µM | – | 59.7 µM
5 | CN(C)Cc1c[nH]c2nc[nH]c(=O)c12 | – | – | – | 67.7 µM | > 100 µM | – | – | – | – | 53.7 µM | – | > 100 µM | > 100 µM | – | 61 µM | 48.9 µM | > 100 µM | > 100 µM | – | > 100 µM
6 | CN(COC(=O)C(C)(C)C)c1nc(N(C)COC(=O)C(C)(C)C)nc(N(C)COC(=O)C(C)(C)C)n1 | – | – | – | > 100 µM | > 100 µM | – | – | – | – | > 100 µM | – | > 100 µM | 47.6 µM | – | > 100 µM | > 100 µM | > 100 µM | > 100 µM | – | > 100 µM
7 | O=NN(CC(=O)NNc1ccccc1)CC(=O)NNc1ccccc1 | > 100 µM | 3.8 µM | 8.13 µM | > 100 µM | > 100 µM | 4.34 µM | 2.84 µM | > 100 µM | 8.67 µM | > 100 µM | 6.1 µM | > 100 µM | > 100 µM | > 100 µM | > 100 µM | 10.1 µM | > 100 µM | > 100 µM | > 25.6 µM | > 100 µM
8 | C=CC(=O)N1CCN(c2nc(OC[C@@H]3CCCN3C)nc3c(F)c(-c4nc(N)cc(C)c4C(F)(F)F)c(Cl)cc23)[C@@H](C)C1 | 5.34 µM | 1.85 µM | 1.13 µM | 2.51 µM | 4.52 µM | 2.29 µM | 1.73 µM | 2.05 µM | 1.74 µM | 4.54 µM | 2.14 µM | 19.3 µM | 3.57 µM | 1.88 µM | 5.39 µM | 3.51 µM | 4.34 µM | 3.33 µM | 1.77 µM | 7.17 µM

Source: PubChem BioAssay (NCI)
